Data as given in patent US4882171A, “Vanadium-peroxide compositions as insulin mimickers” (priority 1986, dated 1989).

Columns and labels:
[1] = tested on: adipocytes (protein synthesis); assay: Protein synthesis in adipocytes, 3H-leucine incorporation (Example 5, Table 2); format: cell-based
Experimental: Adipocytes were isolated by collagenase digestion and protein synthesis was assessed by the incorporation 3,4,5-^3 H-leucine (0.5 uCi/ml) over 1 h at 37° C. into trichloroacetic acid (10%) precipitable material.
This was followed by a 1 h incubation with radiolabelled leucine. The reaction was terminated by the addition of cold TCA and centrifugation. The pellet was counted in a beta counter.

[2] = tested on: 125I-IGF-2 binding, rat adipocytes; assay: IGF-2 binding to rat adipocytes (Example 1, Table 1); format: cell-based; settings: insulin 10 ng/ml, vanadate 1 mM and/or H2O2 1 mM, 15 min preincubation at 37° C.; control = 125I-IGF-2 alone
[3] = tested on: rat adipocytes (lipolysis); assay: Lipolysis in rat adipocytes (Example 4); format: cell-based; settings: vanadate with H2O2 10^-3 M, or vanadate alone
[4] = tested on: 125I-IGF-II binding, rat adipocytes; assay: Binding of labelled IGF-II to rat adipocytes, vanadate dose response (Example 2, FIG. 2); format: cell-based; settings: vanadate alone; % of that seen with maximal doses of insulin
Experimental: Determination of ^125 I-IGF-II binding (shown in FIG. 2) is achieved by incubating adipocytes with vanadate (white circles on Figure); hydrogen peroxide (1mM) plus vanadate (black circles); and insulin (black squares) for 15 minutes at 37 C. Each value shown is the mean ± S.E. (Standard Error) of three separate experiments.

[5] = Blood sugar in intact rats after jugular vein injection (Example 6B); format: in vivo, rat (male Sprague-Dawley); settings: 0.5 ml of 2 mM vanadate
Experimental: Solutions were injected into the jugular vein and blood samples were removed for determination of blood sugar by a standard glucose oxidase procedure.

[6] = tested on: 125I-IGF-2 cell surface binding, fat cell; settings: vanadate alone; cited from earlier work
[7] = tested on: rat adipocytes (lipogenesis); assay: Lipogenesis in rat adipocytes (Example 4); format: cell-based; settings: 10^-7 M vanadate with H2O2 10^-3 M equals vanadate alone at 10^-4 M
[8] = Blood glucose in live rats after jugular vein injection (Example 6A); format: in vivo, rat; settings: 0.2 to 0.4 ml of 1 mM solution, 200 g rats
Experimental: In live rat studies vanadate (sodium salt) and the reaction mixture (phosphate-buffered saline containing vanadate and H2 O2 at neutral pH) was injected into 200 g rats via the internal jugular vein. […] This decrease was short-lived.

[9] = tested on: insulin receptor tyrosine kinase; assay: Insulin receptor tyrosine kinase activation in adipocytes, 32P incorporation into poly (Glu, Tyr) (Example 3, FIG. 3); format: cell-based, rat
[10] = tested on: diabetic rats; settings: drinking water; cited from earlier work

Row | Compound | activity at 100 µM ([1]; Adipocyte, 100 uM (H2O2 concentration), 2 h at 37° C., then 1 h radiolabelled leucine, n=4-5, read-out: Leucine Incorp (% of control ± S.E.)) [%] | IGF-2 binding, % of control [2] | vanadate concentration inhibiting lipolysis maximally [3] | maximal effect relative to maximal doses of insulin (IGF-II binding) [4] | effect in lowering blood sugar (in words) [5] | insulin mimicking action (in words) [6] | vanadate concentration giving equal augmentation of lipogenesis [7] | effect on blood glucose (in words) [8] | augmentation of kinase activity over control ([9]; 10^-3 M alone) [%] | Leucine Incorp (% of control ± S.E.) ([1]; 2 uM, 2 h at 37° C., then 1 h radiolabelled leucine, n=2) | Leucine Incorp (% of control ± S.E.) ([1]; 10 uM, 2 h at 37° C., then 1 h radiolabelled leucine, n=6) | Leucine Incorp (% of control ± S.E.) ([1]; 50 uM, 2 h at 37° C., then 1 h radiolabelled leucine, n=5) | Leucine Incorp (% of control ± S.E.) ([1]; 100 uM (H2O2 concentration), 2 h at 37° C., then 1 h radiolabelled leucine, n=4-5) | stimulation of leucine incorporation (in words) ([1]; vanadate alone, 2-100 uM) | effect on blood glucose (in words) [10] | effect on cardiac performance (in words) [10] | augmentation of kinase activity over control ([9]; insulin 10 ng/ml alone) [%]
1 | OO [H2 O2, hydrogen peroxide] | 105 ± 4.7 | 138 ± 12 % of control |  |  |  |  |  |  |  |  |  |  |  |  |  |  | 
2 | [O]=[V]([O-])([O-])[O-] [Vanadate, vanadate] |  | 172 ± 10 % of control | 10^-3 M | about 60% | no effect at all | weak mimicker of insulin action | 10^-4 M | no effect | 32 | 101 ± 5.0 % of control | 104 ± 3.5 % of control | 105 ± 6.0 % of control | 107 ± 8.0 % of control | does not significantly stimulate leucine incorporation | lower blood glucose | improve cardiac performance | 
3 | Insulin: insulin |  |  |  |  |  |  |  |  |  |  |  |  |  |  |  |  | 349
